Source: ChEMBL document CHEMBL1649296, “Modifying culture conditions in chemical library screening identifies alternative inhibitors of mycobacteria” (Antimicrob Agents Chemother, 2009)
Values after ≈ are worked out from the molar mass of the structure shown.

Legend:
Type in all cases: functional, organism-based
[1] = system: Mycolicibacterium smegmatis; experiment: Antimycobacterial activity against Mycobacterium smegmatis grown in Luria-Bertani broth medium assessed as growth inhibition in mid-logarithmic phase by spectrophotometry
[2] = system: Mycolicibacterium smegmatis; experiment: Antimycobacterial activity against Mycobacterium smegmatis grown in carbon-limited broth medium assessed as growth inhibition in mid-logarithmic phase by spectrophotometry
[3] = system: Mycolicibacterium smegmatis; experiment: Antimycobacterial activity against Mycobacterium smegmatis grown in nitrogen -limited broth medium assessed as growth inhibition in mid-logarithmic phase by spectrophotometry
[4] = system: Mycolicibacterium smegmatis; experiment: Antimycobacterial activity against Mycobacterium smegmatis grown in Luria-Bertani broth medium assessed as growth inhibition in mid-logarithmic phase by GFP-based fluorescence assay
[5] = system: Mycolicibacterium smegmatis; experiment: Antimycobacterial activity against Mycobacterium smegmatis grown in carbon-limited broth medium assessed as growth inhibition in mid-logarithmic phase by GFP-based fluorescence assay
[6] = system: Mycolicibacterium smegmatis; experiment: Antimycobacterial activity against Mycobacterium smegmatis grown in nitrogen -limited broth medium assessed as growth inhibition in mid-logarithmic phase by GFP-based fluorescence assay

MIC ([1]; Mycolicibacterium smegmatis)	MIC ([2]; Mycolicibacterium smegmatis)	MIC ([3]; Mycolicibacterium smegmatis)	MIC ([4]; Mycolicibacterium smegmatis)	MIC ([5]; Mycolicibacterium smegmatis)	MIC ([6]; Mycolicibacterium smegmatis)	Compound	IC50 ([1]; Mycolicibacterium smegmatis)	IC50 ([2]; Mycolicibacterium smegmatis)	IC50 ([3]; Mycolicibacterium smegmatis)	IC50 ([4]; Mycolicibacterium smegmatis)	IC50 ([5]; Mycolicibacterium smegmatis)	IC50 ([6]; Mycolicibacterium smegmatis)	IC50 [1]	IC50 [2]	IC50 [3]	IC50 [4]	IC50 [5]	IC50 [6]
50 µM (≈ 17 µg/mL)	25 µM (≈ 8.51 µg/mL)	50 µM (≈ 17 µg/mL)	50 µM (≈ 17 µg/mL)	25 µM (≈ 8.51 µg/mL)	50 µM (≈ 17 µg/mL)	N=C(N)c1ccc(OCCCCCOc2ccc(C(=N)N)cc2)cc1 [PENTAMIDINE]	23.5 µM	11.1 µM	9.1 µM	23.5 µM	11.1 µM	9.1 µM	–	–	–	–	–	–
50 µM (≈ 9.01 µg/mL)	12.5 µM (≈ 2.25 µg/mL)	12.5 µM (≈ 2.25 µg/mL)	50 µM (≈ 9.01 µg/mL)	12.5 µM (≈ 2.25 µg/mL)	12.5 µM (≈ 2.25 µg/mL)	c1cnc2c(c1)ccc1cccnc12 [PHENANTHROLINE]	41.6 µM	4.99 µM	5.76 µM	41.6 µM	4.99 µM	5.76 µM	–	–	–	–	–	–
12.5 µM (≈ 6.22 µg/mL)	25 µM (≈ 12.4 µg/mL)	12.5 µM (≈ 6.22 µg/mL)	12.5 µM (≈ 6.22 µg/mL)	25 µM (≈ 12.4 µg/mL)	12.5 µM (≈ 6.22 µg/mL)	CC(=O)[C@]1(O)Cc2c(O)c3c(c(O)c2[C@@H](O[C@H]2C[C@H](N)[C@H](O)[C@H](C)O2)C1)C(=O)c1ccccc1C3=O [IDARUBICIN]	3.61 µM	6.68 µM	5.13 µM	3.61 µM	6.68 µM	5.13 µM	–	–	–	–	–	–
–	–	–	–	–	–	4-CHLOROMERCURIBENZOIC ACID	–	–	–	–	–	–	7.07 µM	7.65 µM	6.33 µM	7.07 µM	7.65 µM	6.33 µM
12.5 µM (≈ 4.39 µg/mL)	6.25 µM (≈ 2.2 µg/mL)	6.25 µM (≈ 2.2 µg/mL)	12.5 µM (≈ 4.39 µg/mL)	6.25 µM (≈ 2.2 µg/mL)	6.25 µM (≈ 2.2 µg/mL)	CCn1cc(C(=O)O)c(=O)c2cc(F)c(N3CCNC(C)C3)c(F)c21 (stereo not drawn) [LOMEFLOXACIN]	4.33 µM	4.88 µM	1.44 µM	4.33 µM	4.88 µM	1.44 µM	–	–	–	–	–	–
50 µM (≈ 20.4 µg/mL)	50 µM (≈ 20.4 µg/mL)	50 µM (≈ 20.4 µg/mL)	50 µM (≈ 20.4 µg/mL)	50 µM (≈ 20.4 µg/mL)	50 µM (≈ 20.4 µg/mL)	CN1CCN(CCCN2c3ccccc3Sc3ccc(C(F)(F)F)cc32)CC1 [TRIFLUOPERAZINE]	12.3 µM	12.3 µM	3.15 µM	12.3 µM	12.3 µM	3.15 µM	–	–	–	–	–	–
50 µM	50 µM	25 µM	50 µM	50 µM	25 µM	CN(C)C(CCCCC[N+](C)(C)CCCN1C(=O)c2cccc3cccc(c23)C1=O)CCCN1C(=O)c2cccc3cccc(c23)C1=O (stereo not drawn)	8.15 µM	11.7 µM	6 µM	8.15 µM	11.7 µM	6 µM	–	–	–	–	–	–

Compound	MIC ([1]; Mycolicibacterium smegmatis)	MIC ([2]; Mycolicibacterium smegmatis)	MIC ([3]; Mycolicibacterium smegmatis)	MIC ([4]; Mycolicibacterium smegmatis)	MIC ([5]; Mycolicibacterium smegmatis)	MIC ([6]; Mycolicibacterium smegmatis)	IC50 ([1]; Mycolicibacterium smegmatis)	IC50 ([2]; Mycolicibacterium smegmatis)	IC50 ([3]; Mycolicibacterium smegmatis)	IC50 ([4]; Mycolicibacterium smegmatis)	IC50 ([5]; Mycolicibacterium smegmatis)	IC50 ([6]; Mycolicibacterium smegmatis)	IC50 [1]	IC50 [2]	IC50 [3]	IC50 [4]	IC50 [5]	IC50 [6]
O=S1(=O)N(CCN2CC=C(c3c[nH]c4cc(F)ccc34)CC2)c2cccc3c2N1CCC3	50 µM (≈ 22.6 µg/mL)	25 µM (≈ 11.3 µg/mL)	50 µM (≈ 22.6 µg/mL)	50 µM (≈ 22.6 µg/mL)	25 µM (≈ 11.3 µg/mL)	50 µM (≈ 22.6 µg/mL)	25.1 µM	25.3 µM	22.3 µM	25.1 µM	25.3 µM	22.3 µM	–	–	–	–	–	–
CN[C@H](CC(C)C)C(=O)N[C@H]1C(=O)N[C@@H](CC(N)=O)C(=O)N[C@H]2C(=O)N[C@H]3C(=O)N[C@H](C(=O)N[C@H](C(=O)O)c4cc(O)cc(O)c4-c4cc3ccc4O)[C@H](O)c3ccc(c(Cl)c3)Oc3cc2cc(c3O[C@@H]2O[C@H](CO)[C@@H](O)[C@H](O)[C@H]2O[C@H]2C[C@](C)(N)[C@H](O)[C@H](C)O2)Oc2ccc(cc2Cl)[C@H]1O [VANCOMYCIN]	12.5 µM (≈ 18.1 µg/mL)	25 µM (≈ 36.2 µg/mL)	25 µM (≈ 36.2 µg/mL)	12.5 µM (≈ 18.1 µg/mL)	25 µM (≈ 36.2 µg/mL)	25 µM (≈ 36.2 µg/mL)	3.18 µM	16.7 µM	11.1 µM	3.18 µM	16.7 µM	11.1 µM	–	–	–	–	–	–
C[Se]C[C@H](N)C(=O)O [METHYLSELENOCYSTEINE]	> 50 µM	12.5 µM (≈ 2.28 µg/mL)	12.5 µM (≈ 2.28 µg/mL)	> 50 µM	12.5 µM (≈ 2.28 µg/mL)	12.5 µM (≈ 2.28 µg/mL)	> 50 µM	2.19 µM	0.6 µM	> 50 µM	2.19 µM	0.6 µM	–	–	–	–	–	–
c1ccc2c(c1)[I+]c1ccccc1-2 [DIPHENYLENEIODONIUM]	6.25 µM	3.12 µM	3.12 µM	6.25 µM	3.12 µM	3.12 µM	6.77 µM	8.53 µM	1.63 µM	6.77 µM	8.53 µM	1.63 µM	–	–	–	–	–	–
Clc1ccc(C(c2ccc(Cl)cc2)[n+]2ccn(CC(OCc3ccc(Cl)cc3Cl)c3ccc(Cl)cc3Cl)c2)cc1 (stereo not drawn) [CALMIDAZOLIUM CHLORIDE]	12.5 µM	50 µM	12.5 µM	12.5 µM	50 µM	12.5 µM	13.2 µM	13.8 µM	7.02 µM	13.2 µM	13.8 µM	7.02 µM	–	–	–	–	–	–
